Data from ChEMBL document CHEMBL1275461, “Early bactericidal activity and pharmacokinetics of the diarylquinoline TMC207 in treatment of pulmonary tuberculosis” (Antimicrob Agents Chemother, 2008).
Converted amounts (≈) assume the structure as drawn. The source made the active and inactive calls. No cut-off for these calls is given here.

Assays:
[1] = test system: Mycobacterium tuberculosis; test: Bactericidal activity against Mycobacterium tuberculosis selected on 100 times compound MIC measured after 6 days; format: functional, organism-based
[2] = test system: Mycobacterium tuberculosis; test: Bactericidal activity against Mycobacterium tuberculosis selected on 10 times compound MIC measured after 6 days; format: functional, organism-based
[3] = test system: Mycobacterium tuberculosis; test: Antimicrobial activity against drug-resistant Mycobacterium tuberculosis; format: functional

In the case of `COc1nc2ccc(Br)cc2cc1[C@@H](c1ccccc1)[C@@](O)(CCN(C)C)c1cccc2ccccc12` [BEDAQUILINE], the Activity [1] is reported as “Active”, the Activity [2] is reported as “Active” and the MIC [3] is reported as 0.03 µg/mL (≈ 0.054 µM).
